DBAASP
In brackets after ≈: the same amount, converted by molar mass.

What was measured:
Experiment in all cases: ≥ marks a high value that may be exact or a test limit, other limits are often not marked, values filed in µg/mL are converted to µM
Bacillus cereus = tested on: Bacillus cereus
Enterococcus faecalis = tested on: Enterococcus faecalis
Escherichia coli = tested on: Escherichia coli
Leuconostoc lactis = tested on: Leuconostoc lactis
Listeria innocua = tested on: Listeria innocua
Micrococcus luteus = tested on: Micrococcus luteus
Pasteurella multocida = tested on: Pasteurella multocida
Staphylococcus aureus = tested on: Staphylococcus aureus
[1] = tested on: Staphylococcus epidermidis
Streptococcus uberis = tested on: Streptococcus uberis
Candida albicans = tested on: Candida albicans
Klebsiella pneumoniae = tested on: Klebsiella pneumoniae
Proteus mirabilis = tested on: Proteus mirabilis
Pseudomonas aeruginosa = tested on: Pseudomonas aeruginosa
Salmonella typhimurium = tested on: Salmonella typhimurium
Serratia marcescens = tested on: Serratia marcescens
Shigella dysenteriae = tested on: Shigella dysenteriae
[2] = tested on: Escherichia coli ATCC 25922
[3] = tested on: Pseudomonas aeruginosa PAO1
[4] = tested on: Staphylococcus aureus USA 300
Acinetobacter baumannii = tested on: Acinetobacter baumannii
[5] = tested on: Candida albicans ATCC 2002
Enterococcus faecium = tested on: Enterococcus faecium
[6] = tested on: Staphylococcus aureus ATCC 2592
[7] = tested on: Pseudomonas aeruginosa CMCCB 10104
[8] = tested on: Staphylococcus aureus ATCC 25923

Row | Structure (SMILES) | MIC (Bacillus cereus) [µM] | MIC (Escherichia coli) [µM] | MIC (Leuconostoc lactis) [µM] | MIC (Listeria innocua) [µM] | MIC (Micrococcus luteus) [µM] | MIC (Pasteurella multocida) [µM] | MIC (Staphylococcus aureus) [µM] | MIC [1] [µM] | MIC (Streptococcus uberis) [µM] | MIC [2] [µM] | MIC [5] [µM] | MIC [7] [µM] | MIC [8] [µM] | further results
1 | CC[C@H](C)[C@H](NC(=O)[C@H](C)NC(=O)[C@@H]1CCCN1C(=O)[C@@H](NC(=O)[C@@H](NC(=O)[C@H](Cc1cnc[nH]1)NC(=O)[C@H](CO)NC(=O)[C@H](C)NC(=O)[C@@H](NC(=O)[C@H](CCCCN)NC(=O)[C@H](C)NC(=O)[C@H](CC(C)C)NC(=O)[C@@H](NC(=O)CNC(=O)[C@H](Cc1ccccc1)NC(=O)[C@H](CC(C)C)NC(=O)CN)C(C)C)C(C)C)C(C)C)C(C)C)C(=O)N[C@@H](C)C(=O)N[C@@H](CCC(=O)O)C(=O)N[C@@H](Cc1cnc[nH]1)C(=O)N[C@@H](Cc1ccccc1)C(=O)N[C@@H](CCC(N)=O)C(=O)N[C@@H](C)C(N)=O [GLFGVLAKVASHVVPAIAEHFQA] | ≥ 42.3 | > 42.3 | ≥ 42.3 | ≥ 42.3 | ≥ 42.3 | ≥ 42.3 | 21.2 (≈ 50 µg/mL) | ≥ 42.3 | 2.54 (≈ 6 µg/mL) |  |  |  |  | MIC (Enterococcus faecalis): ≥ 42.3 µM
2 | CC[C@H](C)[C@H](NC(=O)[C@@H](NC(=O)[C@H](CO)NC(=O)[C@H](C)NC(=O)[C@@H](NC(=O)[C@H](CCCCN)NC(=O)[C@H](CCCCN)NC(=O)[C@@H](NC(=O)[C@@H](NC(=O)[C@H](CCCCN)NC(=O)[C@H](Cc1ccccc1)NC(=O)[C@H](CC(C)C)NC(=O)CN)C(C)C)[C@@H](C)CC)C(C)C)C(C)C)C(=O)NCC(=O)NCC(=O)N[C@@H](CC(C)C)C(N)=O [GLFKVIKKVASVIGGL] | 30.7 (≈ 50 µg/mL) | > 61.4 | 3.68 (≈ 6 µg/mL) | ≥ 61.4 | 7.37 (≈ 12 µg/mL) | ≥ 61.4 | 15.3 (≈ 25 µg/mL) | 7.37 (≈ 12 µg/mL) | 30.7 (≈ 50 µg/mL) |  |  |  |  | 
3 | CC[C@H](C)[C@H](NC(=O)[C@H](C)NC(=O)[C@H](CCSC)NC(=O)CNC(=O)[C@H](CCCCN)NC(=O)[C@@H](NC(=O)[C@H](CO)NC(=O)[C@H](CC(=O)O)NC(=O)[C@H](CC(C)C)NC(=O)[C@H](CC(C)C)NC(=O)CN)[C@@H](C)CC)C(=O)N[C@@H](CO)C(=O)N[C@@H](C)C(=O)NCC(=O)N[C@@H](CCCCN)C(=O)NCC(=O)N[C@@H](C)C(=O)N[C@@H](CC(C)C)C(=O)N[C@@H](CCC(N)=O)C(=O)N[C@@H](CC(N)=O)C(=O)N[C@@H](CC(C)C)C(=O)N[C@@H](CC(C)C)C(=O)N[C@@H](CCCCN)C(=O)N[C@H](C(=O)N[C@@H](C)C(=O)N[C@@H](CO)C(=O)N[C@H]1CSSC[C@@H](C(=O)O)NC(=O)[C@H]([C@@H](C)O)NC(=O)[C@H](CCCCN)NC(=O)[C@H](CC(=O)O)NC(=O)[C@H](CC(C)C)NC(=O)[C@H](CCCCN)NC1=O)C(C)C [GLLDSIKGMAISAGKGALQNLLKVASCKLDKTC] |  |  |  |  | 0.747 (≈ 2.5 µg/mL) |  |  |  |  |  |  |  |  | MIC (Candida albicans): 29.9 µM (≈ 99.9 µg/mL); MIC (Klebsiella pneumoniae): 2.99 µM (≈ 9.99 µg/mL); MIC (Proteus mirabilis): ≥ 59.7 µM; MIC (Pseudomonas aeruginosa): 22.4 µM (≈ 75 µg/mL); MIC (Salmonella typhimurium): 6.72 µM (≈ 22.5 µg/mL); MIC (Serratia marcescens): ≥ 59.7 µM; MIC (Shigella dysenteriae): 2.99 µM (≈ 9.99 µg/mL)
4 | CC(C)C[C@H](NC(=O)[C@H](CC(C)C)NC(=O)[C@H](CCCCN)NC(=O)CNC(=O)[C@H](C)NC(=O)[C@H](C)NC(=O)[C@H](CCCCN)NC(=O)[C@H](CC(C)C)NC(=O)[C@H](C)NC(=O)[C@H](CO)NC(=O)[C@H](CC(C)C)NC(=O)[C@H](CC(C)C)NC(=O)CN)C(N)=O [GLLSALKAAGKLL] |  |  |  |  |  |  |  |  |  | 12.5 (≈ 15.7 µg/mL) |  |  |  | MIC [3]: > 25 µM; MIC [4]: 12.5 µM (≈ 15.7 µg/mL)
5 | CC[C@H](C)[C@H](NC(=O)[C@@H](NC(=O)[C@@H]1CCCN1C(=O)[C@@H](NC(=O)[C@@H](NC(=O)[C@H](Cc1cnc[nH]1)NC(=O)[C@@H]1CCCN1C(=O)[C@H](CC(C)C)NC(=O)[C@@H](NC(=O)[C@H](Cc1cnc[nH]1)NC(=O)[C@H](CCCCN)NC(=O)[C@H](C)NC(=O)[C@@H](NC(=O)[C@H](CO)NC(=O)CNC(=O)[C@H](CC(C)C)NC(=O)[C@@H](NC(=O)[C@H](CO)NC(=O)[C@H](CC(C)C)NC(=O)[C@H](CC(C)C)NC(=O)CN)C(C)C)C(C)C)C(C)C)C(C)C)C(C)C)C(C)C)C(=O)N[C@@H](C)C(=O)N[C@@H](CCC(=O)O)C(=O)N[C@@H](CCCCN)C(=O)N[C@@H](CC(C)C)C(N)=O [GLLSVLGSVAKHVLPHVVPVIAEKL] | ≥ 38.8 | > 38.8 | 2.33 (≈ 6 µg/mL) | 19.4 (≈ 50 µg/mL) | 9.7 (≈ 25 µg/mL) | ≥ 38.8 | > 38.8 | ≥ 38.8 | 19.4 (≈ 50 µg/mL) |  |  |  |  | 
6 | CC[C@H](C)[C@H](NC(=O)CNC(=O)[C@H](CO)NC(=O)[C@@H](NC(=O)[C@H](CC(C)C)NC(=O)[C@H](CCC(=O)O)NC(=O)[C@H](CO)NC(=O)[C@H](C)NC(=O)[C@H](CCCCN)NC(=O)[C@H](CCC(=O)O)NC(=O)[C@H](CCCCN)NC(=O)[C@@H](NC(=O)[C@H](CCCCN)NC(=O)[C@H](CCC(=O)O)NC(=O)[C@H](Cc1c[nH]c2ccccc12)NC(=O)[C@H](CC(C)C)NC(=O)CN)[C@@H](C)CC)C(C)C)C(=O)N[C@H](C(=O)N[C@@H](CCC(=O)O)C(=O)NCC(=O)N[C@H](C(=O)N[C@@H](CCCCN)C(=O)O)C(C)C)C(C)C [GLWEKIKEKASELVSGIVEGVK] | ≥ 41.7 | > 41.7 | ≥ 41.7 | ≥ 41.7 | 1.25 (≈ 3 µg/mL) | ≥ 41.7 | > 41.7 | ≥ 41.7 | ≥ 41.7 |  |  |  |  | 
7 | CC[C@H](C)[C@H](NC(=O)[C@H](CCCCN)NC(=O)[C@H](CS)NC(=O)[C@H](CC(C)C)NC(=O)CNC(=O)CNC(=O)[C@H](C)NC(=O)[C@@H](NC(=O)[C@H](CC(N)=O)NC(=O)[C@H](CCCCN)NC(=O)[C@H](CC(C)C)NC(=O)[C@@H](NC(=O)[C@H](CC(N)=O)NC(=O)[C@H](C)NC(=O)[C@H](Cc1c[nH]c2ccccc12)NC(=O)CN)[C@@H](C)O)C(C)C)C(=O)N[C@H](C(=O)NCC(=O)N[C@@H](C)C(=O)N[C@@H](C)C(=O)O)[C@@H](C)O [GWANTLKNVAGGLCKITGAA] |  |  |  |  |  |  |  |  |  | > 51.4 | ≥ 38.6 |  |  | MIC (Acinetobacter baumannii): 19.3 µM (≈ 37.5 µg/mL); MIC (Enterococcus faecium): 19.3 µM (≈ 37.5 µg/mL); MIC (Klebsiella pneumoniae): > 51.4 µM; MIC (Serratia marcescens): ≥ 51.4 µM; MIC [6]: 19.3 µM (≈ 37.5 µg/mL)
8 | CC[C@H](C)[C@H](N)C(=O)N[C@@H](CC(C)C)C(=O)N1CCC[C@H]1C(=O)N[C@@H](Cc1ccccc1)C(=O)N[C@H](C(=O)N[C@@H](C)C(=O)NCC(=O)N[C@H](C(=O)N[C@@H](C)C(=O)N[C@@H](C)C(=O)N[C@@H](CCC(=O)O)C(=O)N[C@@H](CCSC)C(=O)N[C@@H](CCSC)C(=O)N[C@@H](CCC(=O)O)C(=O)N[C@@H](Cc1cnc[nH]1)C(=O)N[C@H](C(=O)N[C@@H](Cc1ccc(O)cc1)C(=O)N[C@H]1CSSC[C@@H](C(=O)O)NC(=O)[C@H](CCCCN)NC(=O)[C@H](CCCCN)NC(=O)[C@H](CO)NC(=O)[C@H](C)NC(=O)[C@H](C)NC1=O)C(C)C)C(C)C)C(C)C [ILPFVAGVAAEMMEHVYCAASKKC] |  |  |  |  |  |  |  |  |  | 5.1 (≈ 13.1 µg/mL) | 5.1 (≈ 13.1 µg/mL) | 20.4 (≈ 52.4 µg/mL) | 10.2 (≈ 26.2 µg/mL) | 
9 | CC[C@H](C)[C@H](N)C(=O)N[C@@H](CC(C)C)C(=O)N1CCC[C@H]1C(=O)N[C@@H](Cc1ccccc1)C(=O)N[C@H](C(=O)N[C@@H](C)C(=O)NCC(=O)N[C@H](C(=O)N[C@@H](C)C(=O)N[C@@H](C)C(=O)N[C@@H](CCSC)C(=O)N[C@@H](CCC(=O)O)C(=O)N[C@@H](CCSC)C(=O)N[C@@H](CCC(=O)O)C(=O)N[C@@H](Cc1cnc[nH]1)C(=O)N[C@H](C(=O)N[C@@H](Cc1ccc(O)cc1)C(=O)N[C@H]1CSSC[C@@H](C(=O)O)NC(=O)[C@H](CCCCN)NC(=O)[C@H](CCCCN)NC(=O)[C@H](CO)NC(=O)[C@H](C)NC(=O)[C@H](C)NC1=O)C(C)C)C(C)C)C(C)C [ILPFVAGVAAMEMEHVYCAASKKC] |  |  |  |  |  |  |  |  |  | 3.81 (≈ 9.79 µg/mL) | 3.81 (≈ 9.79 µg/mL) | 3.81 (≈ 9.79 µg/mL) | 1.91 (≈ 4.9 µg/mL) | 
10 | CC[C@H](C)[C@H](NC(=O)[C@H](Cc1ccccc1)NC(=O)[C@@H](N)CCCN=C(N)N)C(=O)N[C@@H](Cc1ccc(O)cc1)C(=O)N[C@@H](CCSC)C(=O)N[C@@H](CCCCN)C(=O)NCC(=O)N[C@@H](Cc1ccccc1)C(=O)NCC(=O)N[C@@H](CCCCN)C(=O)N1CCC[C@H]1C(=O)N[C@@H](CCCN=C(N)N)C(=O)N[C@@H](Cc1ccccc1)C(=O)NCC(=O)N[C@@H](CCCCN)C(=O)N[C@@H](CCCN=C(N)N)C(=O)O [RFIYMKGFGKPRFGKR] |  |  |  |  |  |  |  |  |  | 50.3 (≈ 100 µg/mL) | 25.1 (≈ 50 µg/mL) | 12.6 (≈ 25 µg/mL) | 12.6 (≈ 25 µg/mL) | 
